The source made the active and inactive calls. No cut-off for these calls is given here.
Experiments:
[1] = Cytotoxicity against human TZM-bl cells assessed as cell viability after 48 hrs by MTT assay; type: cell-based; settings: for CC50 at 48 h: TZM-bl cells
[2] = tested on: Human immunodeficiency virus 1; assay: Antiviral activity against HIV1 NL4.3 infected in human TZM-bl cells expressing CXCR4-tropic incubated for 1 hr prior to infection measured after 48 hrs by luciferase reporter gene assay; type: functional, organism-based; settings: Human immunodeficiency virus 1, NL4.3, TZM-bl
[3] = Therapeutic index, ratio of CC50 for human TZM-bl cells to IC50 for HIV1 NL4.3 infected in human TZM-bl cells; type: cell-based; settings: HIV1 NL4.3 infected TZM-bl cells, read-out: Ratio CC50/IC50
[4] = target: Human immunodeficiency virus type 1 integrase (Human immunodeficiency virus 1) (UniProt Q7ZJM1); assay: (§1) Inhibition of HIV1 integrase
Sequence of Human immunodeficiency virus type 1 integrase (Human immunodeficiency virus 1) (Q7ZJM1 as listed by the source): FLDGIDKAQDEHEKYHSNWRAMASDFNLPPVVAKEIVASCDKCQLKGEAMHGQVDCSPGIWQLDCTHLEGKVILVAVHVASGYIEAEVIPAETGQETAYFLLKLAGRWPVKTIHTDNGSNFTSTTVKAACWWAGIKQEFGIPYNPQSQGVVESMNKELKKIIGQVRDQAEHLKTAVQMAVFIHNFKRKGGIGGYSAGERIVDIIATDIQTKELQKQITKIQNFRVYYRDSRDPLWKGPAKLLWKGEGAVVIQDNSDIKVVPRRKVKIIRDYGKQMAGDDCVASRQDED

[5] = target: Human immunodeficiency virus type 1 integrase (Human immunodeficiency virus 1, UniProt Q7ZJM1); assay: as §1
Sequence of Human immunodeficiency virus type 1 integrase (Q7ZJM1 whole entry): as the sequence (Q7ZJM1 as listed by the source) above

[6] = tested on: Human immunodeficiency virus 1; assay: Antiviral activity against HIV1 NL4.3 infected in human TZM-bl cells expressing CXCR4-tropic at 50 uM incubated for 1 hr prior to infection measured after 48 hrs by luciferase reporter gene assay; type: functional, organism-based

Compound	CC50 at 48 h [1] [µM]	IC50 ([2]; read-out: IC50) [µM]	IC50 ([2]; read-out: pIC50 (converted)) [µM]	selectivity ratio [3]	inhibition [4]	IC50 [5] [µM]	CC50 ([1]; tzm, 48 h)	Activity [6]
CC(C)=CCCC1=CCc2ccc(O)c(O)c2C1	138	12.3	12.3	11	Dose-dependent effect	13.4		
Cc1nnc(C(=O)NC(C)(C)c2nc(C(=O)NCc3ccc(F)cc3)c(O)c(=O)n2C)o1	856	0.5	0.501					
CC(C)=CCCC1=CCc2c(O)ccc(O)c2C1							Not Active	inactive
COC(=O)C12C=CC(=O)C(OC(C)=O)=C1CC=C(C)C2CC=C(C)C (stereo not drawn)	677	36.7	36.3	18				
COC(=O)C12C=CC(=O)C(O)=C1CC=C(C)C2C/C=C(\C)CO (stereo not drawn)	928	72.7	72.4	13				
CC(C)=CCC1C(C)=CCc2c1ccc(O)c2O (stereo not drawn)	211	4.6	4.57	46	Dose-dependent effect	11.1		
COC(=O)C12C=CC(=O)C(O)=C1CC(CC/C=C(\C)CO)=CC2 (stereo not drawn)	383	285	282	1				
COC(=O)C12C=CC(=O)C(O)=C1CC(CCC=C(C)C)=CC2 (stereo not drawn)	693	171	170	4				
CC(C)=CCC1C(C)=CCc2c(O)ccc(O)c21 (stereo not drawn)	140	12.4	12.3	11	Dose-dependent effect	11.5		
C=C(C=O)[C@@H]1C[C@@]2(C)C(=CC1=O)[C@H](OC(=O)/C(C)=C/C(C)CCCC)CC[C@@H]2C(=O)O (stereo partly drawn)		10	10					
COC(=O)C12C=CC(=O)C(O)=C1CC=C(C)C2C/C=C(\C)C=O (stereo not drawn)	627	60.7	60.3	10				
COC(=O)C12C=CC(=O)C(O)=C1CC=C(C)C2CC=C(C)C (stereo not drawn)	56.4	5	5.01	11				
COC(=O)C12C=CC(=O)C(O)=C1CC(CC/C=C(\C)C=O)=CC2 (stereo not drawn)	625	172	170	4				

Source: ChEMBL document CHEMBL3098125, “Synthesis, anti-HIV activity, integrase enzyme inhibition and molecular modeling of catechol, hydroquinone and quinol labdane analogs” (Bioorg Med Chem Lett, 2014)
